# Assay results from paper PMC6222789, “CF3-Substituted Mollugin 2-(4-Morpholinyl)-ethyl ester as a Potential Anti-inflammatory Agent with Improved Aqueous Solubility and Metabolic Stability” (Molecules : A Journal of Synthetic Chemistry and Natural …, 2018).
# Read-outs that look alike come from different tables or passages of the source.
# What was measured:
# [1] = target: T1, hERG channel (Homo sapiens, UniProt Q12809); experiment: hERG channel binding assay (fluorescence polarization)
# T1 construct: purchased Invitrogen PV5365
# T1 sequence (Q12809 whole entry): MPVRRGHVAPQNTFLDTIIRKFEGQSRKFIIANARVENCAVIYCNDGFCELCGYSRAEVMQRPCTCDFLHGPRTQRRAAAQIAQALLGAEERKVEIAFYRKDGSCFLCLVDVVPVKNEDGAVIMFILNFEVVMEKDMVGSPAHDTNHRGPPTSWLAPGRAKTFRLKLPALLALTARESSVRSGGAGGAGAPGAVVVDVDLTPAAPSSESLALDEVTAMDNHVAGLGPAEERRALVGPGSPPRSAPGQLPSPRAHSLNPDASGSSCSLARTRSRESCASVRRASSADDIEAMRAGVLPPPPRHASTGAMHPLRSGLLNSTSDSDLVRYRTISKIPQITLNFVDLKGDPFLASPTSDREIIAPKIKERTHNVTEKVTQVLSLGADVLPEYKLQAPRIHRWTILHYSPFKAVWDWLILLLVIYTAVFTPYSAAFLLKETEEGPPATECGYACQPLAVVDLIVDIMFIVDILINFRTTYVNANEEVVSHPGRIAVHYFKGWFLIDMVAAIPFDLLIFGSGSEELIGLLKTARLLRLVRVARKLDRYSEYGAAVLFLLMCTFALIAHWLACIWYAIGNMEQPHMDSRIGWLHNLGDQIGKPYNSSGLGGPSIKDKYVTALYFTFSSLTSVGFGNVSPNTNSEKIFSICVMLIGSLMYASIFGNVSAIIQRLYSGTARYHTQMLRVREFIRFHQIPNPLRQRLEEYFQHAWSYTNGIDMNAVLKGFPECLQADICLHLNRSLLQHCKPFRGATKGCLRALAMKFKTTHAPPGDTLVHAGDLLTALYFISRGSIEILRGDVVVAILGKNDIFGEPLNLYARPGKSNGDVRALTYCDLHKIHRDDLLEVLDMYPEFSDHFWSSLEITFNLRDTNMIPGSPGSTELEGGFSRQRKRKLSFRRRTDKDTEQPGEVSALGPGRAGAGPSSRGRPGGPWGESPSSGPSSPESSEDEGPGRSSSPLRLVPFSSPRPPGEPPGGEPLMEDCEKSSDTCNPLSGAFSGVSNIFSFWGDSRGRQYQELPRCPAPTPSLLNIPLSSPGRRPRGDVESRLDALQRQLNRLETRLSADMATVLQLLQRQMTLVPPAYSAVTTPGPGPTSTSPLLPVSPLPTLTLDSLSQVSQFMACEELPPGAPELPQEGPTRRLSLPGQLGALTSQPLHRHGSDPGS
# Procedure: hERG channel binding assay was performed using Invitrogen’s hERG Fluorescence Polarization Assay kit (PV5365) with Synergy Neo plate reader (BioTek, Winooski, VT, USA). The binding assay was carried out according to the kit manufacturer’s instructions.
# [2] = Metabolic stability, human liver microsomes; type: in vitro ADME; settings: 1 μM
# Procedure: (§1) Pooled human liver microsomes (150 donor) and dog, rat, mouse liver microsomes were obtained from BD Gentest Co. (Woburn, MA, USA). NADPH regeneration system was obtained from Promega. S-Mephenytoin, 4-hydroxymephenytoin, and 1’-hydroxymidazolam were purchased from Ultrafine Chemical Co. (Manchester, UK). All other chemicals and solvents were of the highest grade available. The metabolic stability assay was performed by incubation of human or selected animal liver microsomes (most often dog, rat and mouse), at 37 °C with a test compound at a final concentration of 1 μM, in the presence of 0.5 mg/mL microsomal protein and NADPH regeneration system, in a total volume of 100 μL of 100 mM phosphate buffer, pH 7.4. The incubation was started by the addition of NADPH regeneration system and terminated with 40 μL of ice-cold acetonitrile at 0 and 30 min. Precipitated proteins were removed by centrifugation at 10,000× g for 5 min at 4 °C. Aliquots of the supernatant were injected onto an LC-MS/MS system. Incubations terminated prior to the addition of NADPH regeneration system (time point 0 min) were used as standards, defined as 100%. Percent of the parent compound remaining was calculated by comparing peak area.
# [3] = system: IL-6-induced adhesion of U937 monocytic cells to HT-29 cells; experiment: IL-6-induced colonic epithelial cell adhesion assay; type: cell-based, human
# Procedure: (§2) Synthesized mollugin derivatives were subjected to the colonic epithelial cell adhesion assay, which mimics the initial stage of colon inflammation. The inhibition of TNF-α-induced or IL-6-induced adhesion of U937 monocytic cells to HT-29 cells in 10 μM solution of synthesized molecules was measured, and the results are summarized in Table 1 and Table 2. Mesalazine (2), a commercially available medication for the treatment of IBD, and mollugin were chosen as assay positive controls.
# (§3) HT-29 human colonic epithelial cells and U937 human pre-monocytic cells were grown in RPMI 1640 medium supplemented with 10% FBS, 100 IU/mL penicillin, and 100 µg/mL streptomycin in a humidified incubator under 5% CO2/95% air.
# (§4) U937 monocytic cell adhesion to colonic epithelial cells was evaluated using human U937 pre-monocytic cells, which were prelabeled with 2′,7′-bis(2-carboxyethyl)-5(6)-carboxyfluorescein acetoxymethyl ester (BCECF/AM, 10 μg/mL) for 1 h at 37 °C. HT-29 cells cultured in 24-well plates were pretreated with test compound, 5-ASA, or tofacitinib for 1 h prior to incubation with TNF-α (10 ng/mL) and IL-6 (5 ng/mL) for an additional 3 h. Cells were then co-incubated with BCECF/AM-prelabeled U937 cells (1 × 10^6 cells/well) for 30 min at 37 °C. Non-adhering U937 cells were removed, and the HT-29 cells and adherent U937 cells were washed twice with PBS. Images were captured and processed with a Nikon ECLIPSE TE2000-U microscope and NIS-Elements F software (Nikon, Tokyo, Japan). For quantitative analysis, other sets of cells were lysed in 0.1% Triton X-100 in Tris (0.1 M), and the fluorescence was measured using a fluorescence-detecting microplate reader (Promega , Madison, WI, USA) at […]. Experiments were performed in triplicate and repeated at least three times independently.
# [4] = Metabolic stability, dog liver microsomes; type: in vitro ADME; settings: for Metabolic Stability (% Remain, 30 min) Dog: 1 μM
# Procedure: as §1
# [5] = system: TNF-α-induced adhesion of U937 monocytic cells to HT-29 cells; experiment: TNF-α-induced colonic epithelial cell adhesion assay; type: cell-based, human
# Procedure: as §2, §3, §4
# [6] = Plasma stability, human plasma; type: in vitro ADME; settings: 37 °C, 1 μM
# Procedure: (§5) The plasma stability assay was performed by incubation of human or rat plasma with a test compound in a final concentration of 1 μM for 120 min at 37 °C. The incubation was terminated by addition of 40 μL of ice-cold acetonitrile and vortexing for 5 min. The precipitated proteins were removed by centrifugation at 14,000× g for 5 min at 4 °C. Aliquots of the supernatant were injected onto a Shimadzu Nexera XR LC system. Percentages of the parent compound remaining were calculated by comparing peak areas using the Xcalibur software (version 1.6.1, Waltham, MA, USA).
# [7] = Metabolic stability, rat liver microsomes; type: in vitro ADME; settings: for Metabolic Stability (% Remain, 30 min) Rat: 1 μM
# Procedure: as §1
# [8] = Metabolic stability, mouse liver microsomes; type: in vitro ADME; settings: for Metabolic Stability (% Remain, 30 min) Mouse: 1 μM
# Procedure: as §1
# [9] = Plasma stability, rat plasma; type: in vitro ADME; settings: for Plasma Stability (% Remain, 2 h) Rat: 37 °C, 1 μM
# Procedure: as §5
# [10] = system: TNF-α-induced adhesion of U937 monocytic cells to HT-29 cells; parameters: method as in PMID 19765578; settings: cell adhesion assay and IBD animal model; cited from earlier work
# [11] = system: Serum Amyloid A (SAA); experiment: Serum SAA level in DSS-induced colitis mouse model (ELISA); type: in vivo; settings: 4% DSS-induced mouse model; mesalazine 20 mM; ELISA
# Procedure: The level of Serum Amyloid A (SAA) was measured using a mouse SAA ELISA kit according to the manufacturer’s instructions (E-90SAA, Immunology Consultants Laboratory, Inc., Portland, OR, USA). All samples were assayed in duplicate. The concentrations of SAA were determined by comparison to serial dilutions of purified SAA calibrator.
# Figure 2 Analysis of mouse serum amyloid A (SAA) level. Effect of 6d on the level of SAA in the 4% dextran sulfate sodium (DSS)-induced mouse model. The level of SAA in serum was determined by ELISA. The control mice received water + vehicle (water), and the treated groups received 4% DSS + vehicle or DSS with mesalazine (20 mM), 6d (10 μM), or 15c (10 μM). TEXT PRINTED IN THE PICTURE: vehecle: mSS assay (ng/ml): 252.08 | vehecle: mSS assay (ng/ml): 732.93 (4% DSS) | 2: mSS assay (ng/ml): 788.86 (4% DSS) | 6d: mSS assay (ng/ml): 295.77 (4% DSS) | 15c: mSS assay (ng/ml): 300.95 (4% DSS)
# [12] = Homo sapiens, Epithelial cell, U937 adhesion to HT-29 cells, IL-6-induced
# [13] = Homo sapiens, Epithelial cell, U937 adhesion to HT-29 cells, TNF-α-induced
# [14] = human, Invitrogen hERG Fluorescence Polarization Assay kit (PV5365)
"Metabolic Stability (% Remain, 30 min) Human [2] [% Remain]","Metabolic Stability (% Remain, 30 min) Dog [4] [% Remain]","Plasma Stability (% Remain, 2 h) Human [6] [% Remain]","Metabolic Stability (% Remain, 30 min) Rat [7] [% Remain]","Metabolic Stability (% Remain, 30 min) Mouse [8] [% Remain]","Plasma Stability (% Remain, 2 h) Rat [9] [% Remain]",Compound,IC50 [1] [µM],"inhibition at 10 µM [3, 12] [%]","inhibition at 10 µM [5, 13] [%]",also measured
36,42,100,16,24,94,"CC1(C)C=Cc2c(C(=O)OCCCN3CCOCC3)c(O)c3ccccc3c2O1 [6e, 3-Morpholinopropyl 6-hydroxy-2,2-dimethyl-2H-benzo[h]chromene-5-carboxylate]",> 10,26.6 ± 5.1,40.1 ± 3.5,–
58,12,100,13,11,99,"CN1CCC[C@@H]1COC(=O)c1c2c(c3ccccc3c1O)OC(C)(C)C=C2 [6f, (R)-(1-Methylpyrrolidin-2-yl)methyl 6-hydroxy-2,2-dimethyl-2H-benzo[h]chromene-5-carboxylate]",> 10,38.2 ± 5.1,48.3 ± 6.2,–
78,36,100,23,14,100,"CN1CCC(OC(=O)c2c3c(c4ccccc4c2O)OC(C)(C)C=C3)CC1 [6g, 1-Methylpiperidin-4-yl 6-hydroxy-2,2-dimethyl-2H-benzo[h]chromene-5-carboxylate]",> 10,38.9 ± 5,54.8 ± 5.2,–
76,11,79,23,9,89,"CN1CCN(CCOC(=O)c2c3c(c4ccccc4c2O)OC(C)(C)C=C3)CC1 [6h, 2-(4-Methylpiperazin-1-yl)ethyl 6-hydroxy-2,2-dimethyl-2H-benzo[h]chromene-5-carboxylate]",3.3,18.2 ± 3.1,42.2 ± 6.4,"IC50 [1, 14]: 3 µM; inhibition of IL-6-induced monocyte-epithelial adhesion ([3]; 10 μM): reduced % inhibition; inhibition of TNF-α-induced monocyte-epithelial adhesion ([5]; 10 μM): good % inhibition"
–,–,–,–,–,–,"CN1CCN(CCCOC(=O)c2c3c(c4ccccc4c2O)OC(C)(C)C=C3)CC1 [6i, 3-(4-Methylpiperazin-1-yl)propyl 6-hydroxy-2,2-dimethyl-2H-benzo[h]chromene-5-carboxylate]",5.3,27.6 ± 4.2,58.5 ± 6.4,"IC50 [1, 14]: 5 µM"
33,33,92,19,40,16,"COC(=O)c1c2c(c3ccccc3c1O)OC(C)(C)C=C2 [compound 1, mollugin]",> 10,40.8 ± 6.2,37.8 ± 5.7,metabolic stability with dog liver microsomes [4]: generally unstable; metabolic stability with rat liver microsomes [7]: generally unstable; improved efficacy over mesalazine [10]: at least 1000 fold; metabolic stability with mouse liver microsomes [8]: generally unstable; stability in rat plasma [9]: unstable
–,–,–,–,–,–,"Nc1ccc(O)c(C(=O)O)c1 [compound 2, 5-Aminosalicylic acid, reference compound]",–,–,–,"inhibition at 20000 µM ([3]; Homo sapiens, Epithelial cell, at 20 mM, U937 adhesion to HT-29 cells, IL-6-induced): ~30%; % Inhibition IL-6 ([3]; at 20 mM, U937 adhesion to HT-29 cells, IL-6-induced, listed as 2 (5-ASA)): 32.6 ± 7.3 (at 20 mM) %; inhibition at 20000 µM ([5]; Homo sapiens, Epithelial cell, at 20 mM, U937 adhesion to HT-29 cells, TNF-α-induced): ~30%; % Inhibition TNF-α ([5]; at 20 mM, U937 adhesion to HT-29 cells, TNF-α-induced, listed as 2 (5-ASA)): 28.8 ± 7.7 (at 20 mM) %; serum SAA level (mSS assay) [11]: 788.86 ng/mL"
